Data taken from ChEMBL document CHEMBL1201862, “PubChem BioAssay data set” (2004).
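Following 48 hours of exposure in 96-well plates, responses at five concentrations were used to interpolate endpoints linearly. GI50: concentration for 50% inhibition of growth.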 Activity calls are given as the source filed them. No stated cut-off is given here; in the data, active = GI50 up to about 1.1 µM and inactive = higher.

Experiments:
Experiment in all cases: NCI tumour cell line growth inhibition, 48 h
NCI-H522 = system: NCI-H522
HL-60 = system: HL-60
U-251 = system: U-251
SK-MEL-2 = system: SK-MEL-2
UACC-257 = system: UACC-257
COLO 205 = system: COLO 205
SNB-75 = system: SNB-75
ACHN = system: ACHN
HCT-116 = system: HCT-116
SF-268 = system: SF-268
MOLT-4 = system: MOLT-4
NCI-H226 = system: NCI-H226
HOP-62 = system: HOP-62
TK-10 = system: TK-10
A549 = system: A549
MCF7 = system: MCF7
HCC 2998 = system: HCC 2998
OVCAR-3 = system: OVCAR-3
KM12 = system: KM12
SR = system: SR
SF-295 = system: SF-295
OVCAR-4 = system: OVCAR-4
MDA-N = system: MDA-N
HCT-15 = system: HCT-15
SK-MEL-28 = system: SK-MEL-28
DU-145 = system: DU-145
PC-3 = system: PC-3
OVCAR-5 = system: OVCAR-5
UO-31 = system: UO-31
EKVX = system: EKVX
RXF 393 = system: RXF 393
NCI/ADR-RES = system: NCI/ADR-RES
CAKI-1 = system: CAKI-1
Hs-578T = system: Hs-578T
NCI-H23 = system: NCI-H23
786-0 = system: 786-0
A498 = system: A498
SW-620 = system: SW-620
T47D = system: T47D
SN12C = system: SN12C
Malme-3M = system: Malme-3M
K562 = system: K562
SF-539 = system: SF-539
LOX IMVI = system: LOX IMVI
NCI-H460 = system: NCI-H460
BT-549 = system: BT-549
MDA-MB-435 = system: MDA-MB-435
UACC-62 = system: UACC-62
CCRF-CEM = system: CCRF-CEM
IGROV-1 = system: IGROV-1
M14 = system: M14
SNB-19 = system: SNB-19
HT-29 = system: HT-29
HOP-92 = system: HOP-92
OVCAR-8 = system: OVCAR-8
RPMI-8226 = system: RPMI-8226
SK-OV-3 = system: SK-OV-3
MDA-MB-231 = system: MDA-MB-231
SK-MEL-5 = system: SK-MEL-5

How did the GI50 (NCI-H522) turn out when O=c1[nH]nc(-c2ccc([N+](=O)[O-])cc2)[nH]1 was run?
The GI50 was > 100 µM (inactive).

What about the GI50 (HL-60) of the same compound?
The GI50 was > 100 µM (inactive).

And the GI50 (U-251)?
Its GI50 is > 100 µM (inactive).

What about the GI50 (SK-MEL-2) of the same compound?
The GI50 was > 100 µM (inactive).

And the GI50 (UACC-257)?
Its GI50 is > 100 µM (inactive).

And the GI50 (COLO 205)?
The GI50 was > 100 µM (inactive).

And the GI50 (SNB-75)?
The GI50 was > 100 µM (inactive).

And the GI50 (ACHN)?
The GI50 was > 100 µM (inactive).

What about the GI50 (HCT-116) of the same compound?
The GI50 was > 100 µM (inactive).

What about the GI50 (SF-268) of the same compound?
The GI50 was > 100 µM (inactive).

What about the GI50 (MOLT-4) of the same compound?
Its GI50 is > 100 µM (inactive).

What about the GI50 (NCI-H226) of the same compound?
Its GI50 is > 100 µM (inactive).

And the GI50 (HOP-62)?
The GI50 was > 100 µM (inactive).

And the GI50 (TK-10)?
Its GI50 is > 100 µM (inactive).

And the GI50 (A549)?
The GI50 was > 100 µM (inactive).

What about the GI50 (MCF7) of the same compound?
The GI50 was > 100 µM (inactive).

What about the GI50 (HCC 2998) of the same compound?
The GI50 was > 100 µM (inactive).

And the GI50 (OVCAR-3)?
Its GI50 is > 100 µM (inactive).

And the GI50 (KM12)?
The GI50 was > 100 µM (inactive).

And the GI50 (SR)?
The GI50 was > 100 µM (inactive).

What about the GI50 (SF-295) of the same compound?
The GI50 was > 100 µM (inactive).

And the GI50 (OVCAR-4)?
Its GI50 is > 100 µM (inactive).

What about the GI50 (MDA-N) of the same compound?
The GI50 was > 100 µM (inactive).

What about the GI50 (HCT-15) of the same compound?
Its GI50 is greater than 100 µM.

And the GI50 (SK-MEL-28)?
Its GI50 is > 100 µM (inactive).

What about the GI50 (DU-145) of the same compound?
Its GI50 is > 100 µM (inactive).

And the GI50 (PC-3)?
The GI50 was > 100 µM (inactive).

And the GI50 (OVCAR-5)?
The GI50 was > 100 µM (inactive).

And the GI50 (UO-31)?
Its GI50 is > 100 µM (inactive).

What about the GI50 (EKVX) of the same compound?
Its GI50 is 45.4 µM (inactive).

What about the GI50 (RXF 393) of the same compound?
Its GI50 is > 100 µM (inactive).

And the GI50 (NCI/ADR-RES)?
Its GI50 is > 100 µM (inactive).

And the GI50 (CAKI-1)?
The GI50 was > 100 µM (inactive).

And the GI50 (Hs-578T)?
The GI50 was > 100 µM (inactive).

And the GI50 (NCI-H23)?
Its GI50 is > 100 µM (inactive).

What about the GI50 (786-0) of the same compound?
The GI50 was > 100 µM (inactive).

And the GI50 (A498)?
Its GI50 is > 100 µM (inactive).

What about the GI50 (SW-620) of the same compound?
Its GI50 is > 100 µM (inactive).

What about the GI50 (T47D) of the same compound?
The GI50 was > 100 µM (inactive).

What about the GI50 (SN12C) of the same compound?
Its GI50 is > 100 µM (inactive).

And the GI50 (Malme-3M)?
The GI50 was > 100 µM (inactive).

And the GI50 (K562)?
The GI50 was > 100 µM (inactive).

What about the GI50 (SF-539) of the same compound?
Its GI50 is > 100 µM (inactive).

What about the GI50 (LOX IMVI) of the same compound?
The GI50 was > 100 µM (inactive).

And the GI50 (NCI-H460)?
The GI50 was > 100 µM (inactive).

And the GI50 (BT-549)?
Its GI50 is 19.1 µM (inactive).

What about the GI50 (MDA-MB-435) of the same compound?
Its GI50 is > 100 µM (inactive).

And the GI50 (UACC-62)?
Its GI50 is > 100 µM (inactive).

What about the GI50 (CCRF-CEM) of the same compound?
Its GI50 is > 100 µM (inactive).

What about the GI50 (IGROV-1) of the same compound?
The GI50 was > 100 µM (inactive).

And the GI50 (M14)?
The GI50 was > 100 µM (inactive).

What about the GI50 (SNB-19) of the same compound?
Its GI50 is > 100 µM (inactive).

And the GI50 (HT-29)?
Its GI50 is > 100 µM (inactive).

And the GI50 (HOP-92)?
The GI50 was > 100 µM (inactive).

And the GI50 (OVCAR-8)?
The GI50 was > 100 µM (inactive).

And the GI50 (RPMI-8226)?
Its GI50 is > 100 µM (inactive).

Cc1c2cnccc2nc2[nH]c3ccncc3c12 was tested. Which GI50 (NCI-H522) did it give?
Its GI50 is 3.91 µM (inactive).

What about the GI50 (HL-60) of the same compound?
The GI50 was 19.9 µM (inactive).

And the GI50 (U-251)?
Its GI50 is 4.68 µM (inactive).

And the GI50 (SK-MEL-2)?
Its GI50 is 11.4 µM (inactive).

And the GI50 (UACC-257)?
Its GI50 is 20.1 µM (inactive).

And the GI50 (COLO 205)?
The GI50 was 8.49 µM (inactive).

What about the GI50 (SNB-75) of the same compound?
The GI50 was > 100 µM (inactive).

And the GI50 (ACHN)?
The GI50 was 1.59 µM (inactive).

What about the GI50 (SK-OV-3) of the same compound?
The GI50 was 21.5 µM (inactive).

What about the GI50 (SF-268) of the same compound?
The GI50 was 2.47 µM (inactive).

And the GI50 (MOLT-4)?
Its GI50 is 6.31 µM (inactive).

And the GI50 (HOP-62)?
The GI50 was 2.17 µM (inactive).

And the GI50 (TK-10)?
Its GI50 is 3.95 µM (inactive).

What about the GI50 (A549) of the same compound?
The GI50 was 2.94 µM (inactive).

What about the GI50 (OVCAR-3) of the same compound?
The GI50 was 10.4 µM (inactive).

What about the GI50 (KM12) of the same compound?
The GI50 was 6.79 µM (inactive).

What about the GI50 (SR) of the same compound?
Its GI50 is 2.79 µM (inactive).

What about the GI50 (SF-295) of the same compound?
Its GI50 is 6.84 µM (inactive).

And the GI50 (OVCAR-4)?
Its GI50 is 11.7 µM (inactive).

And the GI50 (MDA-N)?
Its GI50 is 10.6 µM (inactive).

And the GI50 (HCT-15)?
The GI50 was 3.98 µM.

And the GI50 (SK-MEL-28)?
Its GI50 is 32.4 µM (inactive).

And the GI50 (MDA-MB-231)?
Its GI50 is 55 µM (inactive).

What about the GI50 (DU-145) of the same compound?
The GI50 was 10.7 µM (inactive).

And the GI50 (PC-3)?
Its GI50 is 4.56 µM (inactive).

What about the GI50 (OVCAR-5) of the same compound?
The GI50 was 5.62 µM (inactive).

And the GI50 (UO-31)?
The GI50 was 4.08 µM (inactive).

And the GI50 (EKVX)?
Its GI50 is 16 µM (inactive).

What about the GI50 (CAKI-1) of the same compound?
Its GI50 is 2.98 µM (inactive).

And the GI50 (Hs-578T)?
Its GI50 is 16.6 µM (inactive).

What about the GI50 (NCI-H23) of the same compound?
Its GI50 is 1.44 µM (inactive).

And the GI50 (786-0)?
Its GI50 is 3.24 µM (inactive).

What about the GI50 (A498) of the same compound?
Its GI50 is 5.47 µM (inactive).

And the GI50 (SW-620)?
The GI50 was 3.93 µM (inactive).

What about the GI50 (SK-MEL-5) of the same compound?
The GI50 was 5.69 µM (inactive).

What about the GI50 (T47D) of the same compound?
Its GI50 is 12.4 µM (inactive).

What about the GI50 (SN12C) of the same compound?
The GI50 was 3.33 µM (inactive).

And the GI50 (Malme-3M)?
The GI50 was 3.33 µM (inactive).

What about the GI50 (K562) of the same compound?
The GI50 was 10.8 µM (inactive).

And the GI50 (SF-539)?
The GI50 was 6.73 µM (inactive).

What about the GI50 (LOX IMVI) of the same compound?
The GI50 was 2.29 µM (inactive).

What about the GI50 (NCI-H460) of the same compound?
Its GI50 is 2.16 µM (inactive).

What about the GI50 (BT-549) of the same compound?
Its GI50 is 6.92 µM (inactive).

What about the GI50 (MDA-MB-435) of the same compound?
Its GI50 is 6.46 µM (inactive).

And the GI50 (UACC-62)?
Its GI50 is 7 µM (inactive).

And the GI50 (CCRF-CEM)?
The GI50 was 5.75 µM (inactive).

And the GI50 (IGROV-1)?
The GI50 was 2.85 µM (inactive).

And the GI50 (M14)?
Its GI50 is 4.5 µM (inactive).

What about the GI50 (SNB-19) of the same compound?
The GI50 was 13.7 µM (inactive).

And the GI50 (HT-29)?
The GI50 was 5.6 µM (inactive).

And the GI50 (HOP-92)?
Its GI50 is 3.78 µM (inactive).

And the GI50 (OVCAR-8)?
Its GI50 is 6.98 µM (inactive).

What about the GI50 (RPMI-8226) of the same compound?
Its GI50 is 2.24 µM (inactive).
